This note sets out measurements from patent publication US7786141B2 (Vertex Pharmaceuticals Incorporated, priority 2004, dated 2010).

One assay addresses T1, M1 muscarinic receptor (Homo sapiens, UniProt P11229).
T1 construct: expressed in transfected cells; host or cells: CHO (M1-CHO)
T1 sequence (P11229 1-460): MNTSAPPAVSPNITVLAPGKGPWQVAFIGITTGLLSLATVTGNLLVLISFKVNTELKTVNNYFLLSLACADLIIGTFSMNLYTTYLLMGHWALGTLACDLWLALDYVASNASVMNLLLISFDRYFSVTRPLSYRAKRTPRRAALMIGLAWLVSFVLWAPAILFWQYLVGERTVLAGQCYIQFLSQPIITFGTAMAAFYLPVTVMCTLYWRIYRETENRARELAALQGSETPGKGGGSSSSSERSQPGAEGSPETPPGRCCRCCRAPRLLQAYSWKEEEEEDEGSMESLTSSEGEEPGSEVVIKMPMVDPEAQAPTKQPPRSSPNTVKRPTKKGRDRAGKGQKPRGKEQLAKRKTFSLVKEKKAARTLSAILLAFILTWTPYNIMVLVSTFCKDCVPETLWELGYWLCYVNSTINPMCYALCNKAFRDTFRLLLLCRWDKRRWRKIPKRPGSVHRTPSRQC
In words: Functional mobilization of intracellular calcium (FLIPR) in M1-CHO cells. In kind it is cell-based. The settings on record: Table 4; for Emax: 100% efficacy is the maximum response obtained with the Carbachol control; for M1 Activity: M1 receptor, calcium mobilization (FLIPR). In short, it runs like this: (§1)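 Steps: seed M1- or M4-CHO cells 18-24 hrs ahead; load calcium dye with 1 mM probenecid; add test compound (0.5% DMSO final), either alone for agonism or 15 min before EC80 carbachol for inhibition; record FLIPR fluorescence for 60 sec.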

A further assay has as its target T2, M4 muscarinic receptor (Homo sapiens, UniProt P08173).
T2 construct: expressed in transfected cells; host or cells: CHO (M4-CHO)
T2 sequence (P08173 1-479): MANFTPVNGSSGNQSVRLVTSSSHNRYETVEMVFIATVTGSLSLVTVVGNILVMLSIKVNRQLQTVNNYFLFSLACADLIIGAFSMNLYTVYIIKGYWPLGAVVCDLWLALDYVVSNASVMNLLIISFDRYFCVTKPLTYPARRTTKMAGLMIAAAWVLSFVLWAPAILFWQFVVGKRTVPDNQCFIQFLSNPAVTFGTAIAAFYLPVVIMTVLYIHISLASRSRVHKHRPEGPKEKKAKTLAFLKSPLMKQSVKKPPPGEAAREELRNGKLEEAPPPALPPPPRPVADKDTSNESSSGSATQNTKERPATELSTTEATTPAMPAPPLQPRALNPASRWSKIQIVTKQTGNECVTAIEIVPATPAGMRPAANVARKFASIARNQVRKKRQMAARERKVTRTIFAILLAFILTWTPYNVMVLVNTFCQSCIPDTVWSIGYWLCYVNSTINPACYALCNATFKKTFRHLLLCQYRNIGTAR
In words: Functional mobilization of intracellular calcium (FLIPR) in M4-CHO cells. In kind it is cell-based. The settings on record: Table 4; for Emax: 100% efficacy is the maximum response obtained with the Carbachol control; for M4 Activity: M4 receptor, calcium mobilization (FLIPR). In short, it runs like this: as §1
For orientation: Calcium assays in cells follow changes in intracellular calcium, usually with a dye or a luminescent sensor.

Some results are limits rather than exact numbers.

Broadly, the Emax is the size of the effect at its maximum, as opposed to the concentration needed. In the case of `CC(=O)N[C@H]1CCC2(CCN(C3CCN(C(=O)OC(C)(C)C)CC3)CC2)c2ccccc21` [compound 912], at M1 muscarinic receptor, the Emax lay within 25 to 100% and the “M1 Activity” value is recorded as “xxx (activity was measured to be less than 2.0 μM)”. Moreover, on M4 muscarinic receptor, the Emax was under 25% and the “M4 Activity” value is listed as “x (activity was measured to be greater than 5.0 μM)”.

With `CC(=O)N1CC2(CCN(C[C@@H]3CCN(c4cnccn4)C3)CC2)c2c(C)cccc21` [compound 913], at M1 muscarinic receptor, the Emax is 25 to 100% and the “M1 Activity” value is recorded as “x (activity was measured to be greater than 5.0 μM)”. At M4 muscarinic receptor, the Emax is under 25% and the “M4 Activity” value is given as “x (activity was measured to be greater than 5.0 μM)”.

As for `CN(C)C(=O)N1CC2(CCN(C3CCN(c4cnc5ccccc5n4)CC3)CC2)c2cc(F)ccc21` [compound 914], on M1 muscarinic receptor, the Emax fell in the range of 25 to 100% and the “M1 Activity” value is “xxx (activity was measured to be less than 2.0 μM)”. Further, at M4 muscarinic receptor, the Emax is 25 to 100% and the “M4 Activity” value was “xxx (activity was measured to be less than 2.0 μM)”.

As to `O=C1CC2(CCN(CC3CC4C=CC3C4)CC2)c2ccc(Cl)cc21` (stereo not drawn) [compound 915], at M1 muscarinic receptor, the Emax fell in the range of 25 to 100% and the “M1 Activity” value is “x (activity was measured to be greater than 5.0 μM)”. In addition, at M4 muscarinic receptor, the Emax was 25 to 100% and the “M4 Activity” value was “x (activity was measured to be greater than 5.0 μM)”.

As for `CC(=O)N1CC2(CCN(C3CCC3)CC2)c2cc(F)ccc21` [compound 916], on M1 muscarinic receptor, the Emax is under 25% and the “M1 Activity” value was “x (activity was measured to be greater than 5.0 μM)”. On M4 muscarinic receptor, the Emax is under 25% and the “M4 Activity” value is recorded as “x (activity was measured to be greater than 5.0 μM)”.

Regarding `COc1ccc(C(=O)N2CCC(N3CCC4(CC3)CN(C(=O)N(C)C)c3ccc(F)cc34)CC2)cc1` [compound 917], on M1 muscarinic receptor, the Emax was under 25% and the “M1 Activity” value is recorded as “x (activity was measured to be greater than 5.0 μM)”. In addition, on M4 muscarinic receptor, the Emax was under 25% and the “M4 Activity” value is “x (activity was measured to be greater than 5.0 μM)”.

Regarding `CCOC(=O)N1CCC(N2CCC3(CC2)CN(C(C)=O)c2c(C4CCCC4)cccc23)CC1` [compound 918], on M1 muscarinic receptor, the Emax fell in the range of 25 to 100% and the “M1 Activity” value is “x (activity was measured to be greater than 5.0 μM)”. Besides, at M4 muscarinic receptor, the Emax is under 25% and the “M4 Activity” value is on record as “x (activity was measured to be greater than 5.0 μM)”.

Regarding `CC(C)C1CCC(N2CCC3(CC2)CC(C(=O)O)c2ccccc23)CC1` (stereo not drawn) [compound 919], on M1 muscarinic receptor, the Emax is under 25% and the “M1 Activity” value is “x (activity was measured to be greater than 5.0 μM)”. Further, on M4 muscarinic receptor, the Emax was under 25% and the “M4 Activity” value is “x (activity was measured to be greater than 5.0 μM)”.

For the molecule `CN(C)C(=O)N1CC2(CCN(C3CCCN(C(=O)OCC(F)F)CC3)CC2)c2cc(F)ccc21` (stereo not drawn) [compound 920], on M1 muscarinic receptor, the Emax is 25 to 100% and the “M1 Activity” value is listed as “xxx (activity was measured to be less than 2.0 μM)”. In addition, at M4 muscarinic receptor, the Emax lay in the range of 25 to 100% and the “M4 Activity” value is “xxx (activity was measured to be less than 2.0 μM)”.

Regarding `CC(F)CC(=O)N1CCC(N2CCC3(CC2)CN(C(=O)N(C)C)c2ccc(F)cc23)CC1` (stereo not drawn) [compound 921], at M1 muscarinic receptor, the Emax lay in the range of 25 to 100% and the “M1 Activity” value is “x (activity was measured to be greater than 5.0 μM)”. On M4 muscarinic receptor, the Emax was under 25% and the “M4 Activity” value is “x (activity was measured to be greater than 5.0 μM)”.

As to `CC(=O)NC1CC2(CCN(C3CCCC3)CC2)c2ccccc21` (stereo not drawn) [compound 922], on M1 muscarinic receptor, the Emax lay within 25 to 100% and the “M1 Activity” value is “x (activity was measured to be greater than 5.0 μM)”. In addition, on M4 muscarinic receptor, the Emax was in the range of 25 to 100% and the “M4 Activity” value was “x (activity was measured to be greater than 5.0 μM)”.

Consider `COC(=O)N1CC[C@@H](CN2CCC3(CC2)CN(C(C)=O)c2ccccc23)C1` [compound 923], for which, at M1 muscarinic receptor, the Emax is 25 to 100%; the “M1 Activity” value is “xx (activity was measured to be between 2.0 μM and 5.0 μM)”. In addition, at M4 muscarinic receptor, the Emax lay within 25 to 100% and the “M4 Activity” value is reported as “xxx (activity was measured to be less than 2.0 μM)”.

For the molecule `COCCN1CC2(CCN(C3CCCCC3)CC2)c2cc(F)ccc21` [compound 925], on M1 muscarinic receptor, the Emax was in the range of 25 to 100% and the “M1 Activity” value is listed as “xxx (activity was measured to be less than 2.0 μM)”. For the same molecule, at M4 muscarinic receptor, the Emax was 25 to 100% and the “M4 Activity” value is reported as “xxx (activity was measured to be less than 2.0 μM)”.

As to `CCOC(=O)C1CC1CN1CCC2(CC1)C[C@H](NC(C)=O)c1ccccc12` (stereo partly drawn) [compound 926], at M1 muscarinic receptor, the Emax lay in the range of 25 to 100% and the “M1 Activity” value is given as “x (activity was measured to be greater than 5.0 μM)”. In addition, on M4 muscarinic receptor, the Emax was under 25% and the “M4 Activity” value was “x (activity was measured to be greater than 5.0 μM)”.

Regarding `CCOC(=O)N1C2CCC1CC(N1CCC3(C[C@H](NC(C)=O)c4cc(F)ccc43)C1)C2` (stereo partly drawn) [compound 928], at M1 muscarinic receptor, the Emax is 25 to 100% and the “M1 Activity” value is “xxx (activity was measured to be less than 2.0 μM)”. At M4 muscarinic receptor, the Emax fell in the range of 25 to 100% and the “M4 Activity” value is reported as “xxx (activity was measured to be less than 2.0 μM)”.

Regarding `CC#CCOC(=O)N1CC[C@@H](CN2CCC3(CC2)CN(C(C)=O)c2cccc(C)c23)C1` [compound 929], at M1 muscarinic receptor, the Emax fell in the range of 25 to 100% and the “M1 Activity” value is “xxx (activity was measured to be less than 2.0 μM)”. For the same molecule, on M4 muscarinic receptor, the Emax lay in the range of 25 to 100% and the “M4 Activity” value is given as “xxx (activity was measured to be less than 2.0 μM)”.

As to `CCOC(=O)N1CCC(N2CCC3(CC2)CN(C(C)=O)c2c(C4=CCCC4)cccc23)CC1` [compound 930], at M1 muscarinic receptor, the Emax is under 25% and the “M1 Activity” value is “x (activity was measured to be greater than 5.0 μM)”. On M4 muscarinic receptor, the Emax is under 25% and the “M4 Activity” value is “x (activity was measured to be greater than 5.0 μM)”.

Regarding `COc1cc2c(cc1OC)C1(CCN(CC3CCCCC3)CC1)C[C@@H]2N(C(C)=O)[C@@H](C)c1ccccc1` [compound 931], on M1 muscarinic receptor, the Emax was under 25% and the “M1 Activity” value is “x (activity was measured to be greater than 5.0 μM)”. In addition, at M4 muscarinic receptor, the Emax was under 25% and the “M4 Activity” value is on record as “x (activity was measured to be greater than 5.0 μM)”.

`CC(=O)N1CC2(CCN(C3CCN(C(=O)OC4CCOC4)CC3)CC2)c2ccccc21` (stereo not drawn) [compound 932]: at M1 muscarinic receptor, the Emax was in the range of 25 to 100% and the “M1 Activity” value was “x (activity was measured to be greater than 5.0 μM)”. On M4 muscarinic receptor, the Emax is under 25% and the “M4 Activity” value is recorded as “x (activity was measured to be greater than 5.0 μM)”.

With `Cc1ccc2c(c1)C1(CCN(C3CC4CCC3C4)CC1)CN2C(=O)c1ccccc1` (stereo not drawn) [compound 933], on M1 muscarinic receptor, the Emax is under 25% and the “M1 Activity” value is “x (activity was measured to be greater than 5.0 μM)”. Also, on M4 muscarinic receptor, the Emax is under 25% and the “M4 Activity” value is on record as “x (activity was measured to be greater than 5.0 μM)”.

With `CC(=O)N[C@H]1CC2(CCN(CC3CCCC3)CC2)c2ccccc21` [compound 934], at M1 muscarinic receptor, the Emax was 25 to 100%; the “M1 Activity” value is “xx (activity was measured to be between 2.0 μM and 5.0 μM)”. Besides, at M4 muscarinic receptor, the Emax lay in the range of 25 to 100% and the “M4 Activity” value is given as “xxx (activity was measured to be less than 2.0 μM)”.

With `Cc1ccc2c(c1)/C(=N/O)CC21CCN(CC2C[C@H]3CCC2C3)CC1` (stereo partly drawn) [compound 935], at M1 muscarinic receptor, the Emax is 25 to 100% and the “M1 Activity” value is “x (activity was measured to be greater than 5.0 μM)”. Also, at M4 muscarinic receptor, the Emax fell in the range of 25 to 100% and the “M4 Activity” value is “xxx (activity was measured to be less than 2.0 μM)”.

As for `COC(=O)N1CCCC(CCN2CCC3(CCC(NC(C)=O)c4ccccc43)CC2)C1` (stereo not drawn) [compound 936], on M1 muscarinic receptor, the Emax fell in the range of 25 to 100% and the “M1 Activity” value is recorded as “xxx (activity was measured to be less than 2.0 μM)”. Also, on M4 muscarinic receptor, the Emax was under 25% and the “M4 Activity” value was “x (activity was measured to be greater than 5.0 μM)”.

In the case of `CN(C)C(=O)N1CC2(CCN(C3CCN(C(=O)OCC(F)(F)F)CC3)CC2)c2cc(F)ccc21` [compound 938], on M1 muscarinic receptor, the maximal response (Emax) lay within 25 to 100% and the “M1 Activity” value is given as “xxx (activity was measured to be less than 2.0 μM)”. Further, on M4 muscarinic receptor, the Emax lay within 25 to 100% and the “M4 Activity” value is reported as “xxx (activity was measured to be less than 2.0 μM)”.
